Columns and labels:
[1] = molecular target: Delta-type opioid receptor (Mus musculus) (UniProt P32300); test: Agonist activity at delta opioid receptor in ICR mouse vas deferens assessed as inhibition of electrically-induced smooth muscle contraction at 1 uM after 3 mins; assay type: functional, tissue-based
[2] = molecular target: Mu-type opioid receptor (Cavia porcellus) (UniProt P97266); test: Agonist activity at mu opioid receptor in Hartley guinea pig ileum longitudinal muscle myenteric plexus assessed as inhibition of electrically-induced smooth muscle contraction at 1 uM after 3 mins; assay type: functional, tissue-based
[3] = molecular target: Delta-type opioid receptor (Homo sapiens, UniProt P41143); test: Displacement of [3H]DPDPE from delta opioid receptor transfected in […] HN9.10 cells after 3 hrs by liquid scintillation counter; assay type: cell-based
[4] = molecular target: Mu-type opioid receptor (Homo sapiens, UniProt P35372); test: Displacement of [3H]DAMGO from mu opioid receptor transfected in […] HN9.10 cells after 3 hrs by liquid scintillation counter; assay type: cell-based
[5] = molecular target: Kappa-type opioid receptor (Homo sapiens, UniProt P41145); test: Displacement of [3H]U69593 from human kappa opioid receptor expressed in CHO cells after 60 mins by liquid scintillation counter; assay type: cell-based
[6] = molecular target: Mu-type opioid receptor (Cavia porcellus, UniProt P97266); test: Agonist activity at mu opioid receptor in Hartley guinea pig ileum longitudinal muscle myenteric plexus assessed as inhibition of electrically-induced smooth muscle contraction after 3 mins; assay type: functional, tissue-based
[7] = molecular target: Delta-type opioid receptor (Mus musculus, UniProt P32300); test: Agonist activity at delta opioid receptor in ICR mouse vas deferens assessed as inhibition of electrically-induced smooth muscle contraction after 3 mins; assay type: functional, tissue-based
Chain of Delta-type opioid receptor (Mus musculus, UniProt P32300) (P32300 whole entry): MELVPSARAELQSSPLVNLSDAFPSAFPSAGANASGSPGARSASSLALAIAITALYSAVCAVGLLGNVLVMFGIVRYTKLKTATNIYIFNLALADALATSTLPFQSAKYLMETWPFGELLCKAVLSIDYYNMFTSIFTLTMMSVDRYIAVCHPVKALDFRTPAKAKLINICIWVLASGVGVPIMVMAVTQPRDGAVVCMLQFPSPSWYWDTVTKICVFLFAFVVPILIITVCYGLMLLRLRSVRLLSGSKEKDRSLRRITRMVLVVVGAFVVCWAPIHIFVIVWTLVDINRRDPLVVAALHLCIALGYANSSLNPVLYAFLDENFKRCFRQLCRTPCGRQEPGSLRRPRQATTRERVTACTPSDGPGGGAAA

Chain of Delta-type opioid receptor (Mus musculus) (P32300 whole entry): as above
Chain of Kappa-type opioid receptor (P41145 whole entry): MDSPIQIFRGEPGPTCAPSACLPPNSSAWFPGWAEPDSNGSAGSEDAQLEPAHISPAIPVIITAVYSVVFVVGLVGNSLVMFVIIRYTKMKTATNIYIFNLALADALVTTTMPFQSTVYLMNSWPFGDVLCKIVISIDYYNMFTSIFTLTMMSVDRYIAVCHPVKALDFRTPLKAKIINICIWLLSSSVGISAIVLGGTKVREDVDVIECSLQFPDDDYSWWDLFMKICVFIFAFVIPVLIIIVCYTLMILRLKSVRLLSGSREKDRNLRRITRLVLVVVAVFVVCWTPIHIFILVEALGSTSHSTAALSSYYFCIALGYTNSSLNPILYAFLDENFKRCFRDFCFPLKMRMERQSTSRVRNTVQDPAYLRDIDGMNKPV
Chain of Delta-type opioid receptor (Homo sapiens, UniProt P41143) (P41143 whole entry): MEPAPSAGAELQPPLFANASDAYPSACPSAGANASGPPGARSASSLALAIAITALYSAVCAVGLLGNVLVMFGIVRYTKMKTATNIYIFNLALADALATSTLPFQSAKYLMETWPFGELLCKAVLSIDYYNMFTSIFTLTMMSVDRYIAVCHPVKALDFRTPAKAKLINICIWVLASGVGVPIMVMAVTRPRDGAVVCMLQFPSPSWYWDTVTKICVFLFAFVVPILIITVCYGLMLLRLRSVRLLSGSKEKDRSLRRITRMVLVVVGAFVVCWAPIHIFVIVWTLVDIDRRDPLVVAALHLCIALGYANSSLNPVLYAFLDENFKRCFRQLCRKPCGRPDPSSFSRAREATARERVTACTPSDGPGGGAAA
Chain of Mu-type opioid receptor (Cavia porcellus, UniProt P97266) (P97266 whole entry): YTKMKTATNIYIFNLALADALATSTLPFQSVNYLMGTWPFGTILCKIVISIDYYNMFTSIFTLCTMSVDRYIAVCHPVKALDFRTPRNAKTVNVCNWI
Chain of Mu-type opioid receptor (Cavia porcellus) (P97266 whole entry): as above
Chain of Mu-type opioid receptor (Homo sapiens, UniProt P35372) (P35372 whole entry): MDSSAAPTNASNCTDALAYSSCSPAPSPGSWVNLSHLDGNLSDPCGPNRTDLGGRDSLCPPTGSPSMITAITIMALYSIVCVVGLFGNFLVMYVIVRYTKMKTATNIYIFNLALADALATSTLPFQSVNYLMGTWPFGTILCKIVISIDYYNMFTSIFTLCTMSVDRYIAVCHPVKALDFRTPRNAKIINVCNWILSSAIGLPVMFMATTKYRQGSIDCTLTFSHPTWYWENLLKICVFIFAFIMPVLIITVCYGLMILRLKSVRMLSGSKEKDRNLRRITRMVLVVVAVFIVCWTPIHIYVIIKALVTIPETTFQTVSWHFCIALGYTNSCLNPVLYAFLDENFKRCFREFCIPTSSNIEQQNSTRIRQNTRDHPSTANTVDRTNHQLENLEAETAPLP

| SMILES | inhibition [1] [%] | inhibition [2] [%] | Ki ([3]; read-out: Ki) [nM] | Ki [4] [nM] | Ki ([5]; cho) | IC50 [6] [nM] | Ki [3] | IC50 [7] [nM] | Ki ([5]; read-out: Ki) [nM] |
| --- | --- | --- | --- | --- | --- | --- | --- | --- | --- |
| Br.N[C@H]1C[C@@H](C(=O)N[C@H](Cc2ccccc2)C(=O)N[C@H](Cc2ccccc2)C(=O)O)N(C(=O)[C@@H](N)Cc2ccc(O)cc2)C1 | 3.6 | 2 | > 10000 | > 10000 | Not Active | – | – | – | – |
| Br.NC(=O)[C@@H](Cc1ccccc1)NC(=O)[C@H](Cc1ccccc1)NC(=O)[C@@H]1C[C@H](N)CN1C(=O)[C@@H](N)Cc1ccc(O)cc1 | 5.4 | – | – | > 10000 | Not Active | 2300 | Not Active | – | – |
| Br.N[C@H]1C[C@@H](C(=O)N[C@@H](Cc2ccccc2)C(=O)N[C@H](Cc2ccccc2)C(=O)O)N(C(=O)[C@@H](N)Cc2ccc(O)cc2)C1 | 1.3 | 3.2 | – | 760 | Not Active | – | Not Active | – | – |
| N[C@@H](Cc1ccc(O)cc1)C(=O)N1C[C@@H]2C[C@H]1C(=O)N[C@H](Cc1ccccc1)C(=O)N[C@H](Cc1ccccc1)C(=O)N2 | – | – | 1010 | 63 | – | 480 | – | 1400 | > 10000 |
| Br.NC(=O)[C@H](Cc1ccccc1)NC(=O)[C@@H](Cc1ccccc1)NC(=O)[C@@H]1C[C@H](N)CN1C(=O)[C@@H](N)Cc1ccc(O)cc1 | 14 | 12 | – | 760 | Not Active | – | Not Active | – | – |
| Br.N[C@H]1C[C@@H](C(=O)N[C@H](Cc2ccccc2)C(=O)N[C@@H](Cc2ccccc2)C(=O)O)N(C(=O)[C@@H](N)Cc2ccc(O)cc2)C1 | 3.6 | 11 | – | 1010 | Not Active | – | Not Active | – | – |
| Br.NC(=O)[C@@H](Cc1ccccc1)NC(=O)[C@@H](Cc1ccccc1)NC(=O)[C@@H]1C[C@H](N)CN1C(=O)[C@@H](N)Cc1ccc(O)cc1 | 0 | 0.9 | – | 3700 | Not Active | – | Not Active | – | – |
| N[C@@H](Cc1ccc(O)cc1)C(=O)N1C[C@@H]2C[C@H]1C(=O)N[C@H](Cc1ccccc1)C(=O)N[C@@H](Cc1ccccc1)C(=O)N2 | – | – | 860 | 38 | – | 330 | – | 950 | > 10000 |
